“Also recorded” adds a separate entry of the source.
Tests used:
[1] = API-excipient compatibility, 1 month at 40° C. and 60° C.; assay type: physicochemical; details: for % Deg. w/Main peak: 1 month 40° C.
Experimental: For the pre-formulation work Compound 50 was mixed with varying ratios of excipients commonly encountered in topical formulations.
The Compound 50 Pre-Formulation Studies began with the addition of each individual excipient to 500 mg of the Active Pharmaceutical Ingredient (API). Table I below explains the detail ratio between each excipient and API used for this study.
The samples, once prepared in scintillation vials, were kept at 40° C. and 60° C. for over one month. The samples were analyzed by the method (not validated) developed by the analytical support group.
The results in Tables III-V were analyzed with respect to Compound 50 standard to calculate % recovery of API in the presence of each excipient. […] Similar results in table V for samples 5-60° C., 6-60° C., 7-60° C., 8-60° C., 10-60° C., 17-60° C., and 18-60° C. were obtained which needs to be further analyzed.

[2] = system: IL-23 p19; test: TaqMan RT-PCR gene expression in skin biopsies, clinical psoriasis study; assay type: in vivo, human; details: lesional psoriatic skin biopsies of patients, week 2 vs pre-treatment (wk0), oral dosing, normalized to hARP
Experimental: (§1) A multicenter, randomized, open-label, multiple oral dose outpatient study was done in patients with moderate to severe chronic plaque psoriasis. Patients received Compound 5021 mg or 35 mg orally twice daily (BID), 35 mg or 70 mg orally once per day (QD). Patients remained on study medication for a period of 12 weeks.
(§2) Lesional and nonlesional skin biopsies were collected from adults with chronic plaque-type psoriasis before and after treatment with Compound 50. The biopsies were processed using the QIAGEN RNeasy kit. Using a rotor-stator tissue homogenizer (saw-tooth rotor; PowerGen 700), frozen specimens were homogenized in buffer (RLT; QIAGEN) for 30-60 s and spun in a microcentrifuge for 3 min at room temperature to pellet debris. The supernatant was loaded onto a QIAGEN minicolumn and spun for 15s at high speed. A series of washes and DNase digestion was followed by final elution of RNA from the column. RNA was quantitated by UV spectrophotometry. The primers and probes for the TaqMan RT-PCR assays for IL-12/23 p40, IL-23 p19, and IL-10 were generated using the Primer Express algorithm version 1.0 from published sequences (National Center for Biotechnology Information). All primers and probes were synthesized by Applied Biosystems-PerkinElmer. RT-PCR reactions were performed according to the manufacturer's directions (EZ PCR Core Reagents; TaqMan and Applied Biosystems). The human acidic ribosomal protein gene (hARP), a housekeeping gene, was used to normalize each sample and each gene.
(§3) Gene expression levels at week 2 (wk2) were compared to pre-treatment levels in lesional psoriatic skin (wk0). […] In the same biopsy samples, an increase in mRNA IL-10, an anti-inflammatory cytokine, was observed (FIG. 1C).

[3] = system: IL-10; test: as above; assay type: in vivo, human; details: lesional psoriatic skin biopsies of patients, week 2 vs pre-treatment (wk0), oral dosing
Experimental: as §1, §2, §3

[4] = system: IL-12/23 p40; test: as above; assay type: in vivo, human; details: lesional psoriatic skin biopsies of patients, week 2 vs pre-treatment (wk0), oral dosing, normalized to hARP
Experimental: as §1, §2, §3

[5] = system: CD3+ cells; test: Immunohistochemistry cell counts in skin biopsies, clinical psoriasis study; assay type: in vivo, human; details: week 12, patients receiving 70 mg once a day
Experimental: as §1
(§4) Tissue sections of skin biopsies were stained with hematoxylin (Fisher) and eosin (Shandon, Pittsburgh) and purified mouse anti-human mAbs to K16 (Sigma), CD3 (Becton Dickinson), CD11c (BD Pharmingen). Biotin-labeled horse anti-mouse antibody (Vector Laboratories) was amplified with avidin-biotin complex (Vector Laboratories) and developed with chromogen 3-amino-9-ethylcarbazole (Sigma Aldrich). Epidermal thickness measures were computed by using National Institutes of Health software (NIH IMAGE 6.1), and positive cells were counted manually by using computer-assisted image analysis.

[6] = system: CD11c+ cells (dendritic cells); test: as above; assay type: in vivo, human
Experimental: as §1, §4

[7] = Water solubility (statement); assay type: physicochemical
[8] = system: CD83 and CD11c; details: responders of Alefacept therapy; cited from earlier work
[9] = week 12, patients receiving 70 mg once a day

| Molecule | % Deg. w/Main peak ([1]; with Methylparaben, 1st impurity peak RRT 0.52) [%] | w/Main Peak ([1]; with Methylparaben, 1 month 60° C., impurity peak 0.51) [%] | w/Main Peak ([1]; with PEG-300, 1 month 60° C., impurity peak 0.60) [%] | w/Main Peak ([1]; with PEG-400, 1 month 60° C., impurity peak 0.60) [%] | w/Main Peak ([1]; with Polysorbate 80, 1 month 60° C., impurity peak 0.60) [%] | w/Main Peak ([1]; with Propylene Glycol, 1 month 60° C., impurity peak 0.60) [%] | % Deg. w/Main peak ([1]; with Propylparaben, 1st impurity peak RRT 0.78) [%] | w/Main Peak ([1]; with Propylparaben, 1 month 60° C., impurity peak 0.78) [%] | w/Main Peak ([1]; with Sorbitan Monooleate, 1 month 60° C., impurity peak 0.59) [%] | IL-23 p19 gene expression [2] | IL-10 mRNA [3] | IL-12/23 p40 gene expression [4] | CD3+ cells in dermis (CD3DER) [5] | CD3+ cells in epidermis (CD3EPI) [5] | CD11c+ cells in epidermis count ([6]; all nonresponders, week 12) | decrease in CD11c+ cells in epidermis ([6]; all responder patients (histological improvement at week 12)) [%] | CD11c+ cells in dermis (CD11DER) [6, 9] | CD11c+ cells in epidermis (CD11EPI) [6, 9] | water solubility [7] | CD83 and CD11c immunostaining [8] |
| --- | --- | --- | --- | --- | --- | --- | --- | --- | --- | --- | --- | --- | --- | --- | --- | --- | --- | --- | --- | --- |
| Cc1cccc(/C=N/Nc2cc(N3CCOCC3)nc(OCCc3ccccn3)n2)c1 [Compound 50, N-(3-Methyl-benzylidene)-N′-[6-morpholin-4-yl-2-(2-pyridin-2-yl-ethoxy)-pyrimidin-4-yl]-hydrazine] | 0.34 | 13.75 | 0.51 | 1.87 | 1.30 | 0.11 | 8.96 | 6.37 | 8.25 | reduced; also recorded: decrease | increase | reduced; also recorded: decrease | significant but less pronounced decreases | significant but less pronounced decreases | no significant reduction | ~100 | significant but less pronounced decreases | marked decrease | not water soluble | – |
| Alefacept | – | – | – | – | – | – | – | – | – | – | – | – | – | – | – | – | – | – | – | decreases |
